Source: patent US11498928B2, “Macrocyclic spiroethers as Mcl-1 inhibitors” (ASCENTAGE PHARMA (SUZHOU) CO., LTD., priority 2019, dated 2022)
pIC50: −log10 of the molar value.

Legend:
NCI-H929 cells = assay: Cell viability assay (NCI-H929 cells), CCK-8; assay type: cell-based; conditions: 5% FBS
Procedure, shortened: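 NCI-H929 cells from ATCC were seeded at 20000 cells/well in 95 μL of culture medium in 96-well plates and grown for 4 hrs. Compounds, serially diluted in DMSO and further diluted in medium, were added as 5 μL, and cells were incubated for 24 hrs at 37° C. with 5% CO2. Viability was measured with CCK-8.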

OPM-2 cells = assay: Cell viability assay (OPM-2 cells), CCK-8; assay type: cell-based; conditions: 5% FBS
Procedure, shortened: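 OPM-2 myeloma cells (20000/well) exposed to serially diluted compound for 24 h at 37 °C, 5% CO2, then incubated 4 h with CCK-8 and read at 450 nm. Readings normalized to vehicle; IC50 from nonlinear regression.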

[1] = target: T1, Mcl-1 protein (residues 171-323) (Homo sapiens, UniProt Q07820); assay: Inhibition of Mcl-1 by fluorescence polarization (FP) competitive binding assay with FAM-Bid tracer; conditions: 2 nM FAM-Bid, 20 nM Mcl-1, 30 min
T1 construct: Tag-free Mcl-1 protein (residues 171-323) was used in the FP assay
Procedure, shortened: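 Tag-free Mcl-1 (20 nM) with 2 nM FAM-Bid peptide in PBS, 0.01% BGG, 0.01% Triton X-100, 5% DMSO, 30 min at room temperature. FP read at Ex 485/Em 528 nm. IC50 from 10-point curves normalised to DMSO and no-protein controls.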

T1 sequence (Q07820 171-323): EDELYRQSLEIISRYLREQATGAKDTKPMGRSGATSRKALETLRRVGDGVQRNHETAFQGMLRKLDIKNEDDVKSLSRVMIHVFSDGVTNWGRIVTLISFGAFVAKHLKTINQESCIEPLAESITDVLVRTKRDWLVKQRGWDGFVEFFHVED

C[C@@H]1[C@@H](C)S(=O)(=O)NC(=O)c2ccc3c(c2)N(C[C@@H]2CC[C@H]2[C@](O)(CN2CCN4CCOC[C@@H]4C2)C2=C[C@H]1C2)C[C@@]1(CCCc2c1ccc(Cl)c2F)CO3 [compound 47, (1S,11′R,12′S,13′R,16′R,16a′R,18a′R,E)-6-chloro-5-fluoro-16′-(((S)-hexahydropyrazino[2,1-c][1,4]oxazin-8(1H)-yl)methyl)-16′-hydroxy-11′,12′-dimethyl-3,4,12,′13′,16′,16a′,17′,18′,18a′,19′-decahydro-1′H,2H,3′H,11′H-spiro[naphthalene-1,2′-[5,7]etheno[13,15]methanocyclobuta[i][1,4]oxazepino[3,4-f][1]thia[2,7]diazacyclohexadecin]-8′(9′H)-one 10′,10′-dioxide]
pIC50 (NCI-H929 cells; Homo sapiens, NCI-H929, 24 h): 8.24
pIC50 (OPM-2 cells; Homo sapiens, OPM-2, 24 h): 7.49
pIC50 [1]: 7.89

CO[C@H]1C2=CC3(C2)CN(C3)S(=O)(=O)NC(=O)c2ccc3c(c2)N(C[C@@H]2CC[C@H]21)C[C@@]1(CCCc2cc(Cl)ccc21)CO3 [compound 31, (1S,16′R,16a′R,18a′R)-6-chloro-16′-methoxy-3,4,16′,16a′,17′,18′,18a′,19′-octahydro-1′H,2H,3′H,12′H-spiro[naphthalene-1,2′-[5,7]etheno[11,13:13,15]dimethanocyclobuta[i][1,4]oxazepino[3,4-f][1]thia[2,7,16]triazacyclohexadecin]-8′(9′H)-one 10′,10′-dioxide]
pIC50 (NCI-H929 cells; Homo sapiens, NCI-H929, 24 h): 5.01
pIC50 (OPM-2 cells; Homo sapiens, OPM-2, 24 h): 5.03
pIC50 [1]: 7.96

CO[C@H]1C2=CC(C2)[C@H](C)N(C)S(=O)(=O)NC(=O)c2ccc3c(c2)N(C[C@@H]2CC[C@H]21)C[C@@]1(CCCc2cc(Cl)ccc21)CO3 (single isomer, unassigned) [26 (isomer 2)]
pIC50 (NCI-H929 cells; 24 h): 5.65
pIC50 (OPM-2 cells; 24 h): 5.65
pIC50 [1]: 8.48

CC(=O)N(C)CCO[C@H]1C2=C[C@@H](C2)[C@H](C)[C@@H](C)S(=O)(=O)NC(=O)c2ccc3c(c2)N(C[C@@H]2CC[C@H]21)C[C@@]1(CCCc2c1ccc(Cl)c2F)CO3 [compound 80, N-(2-(((1S,11′R,12′S,13′R,16′R,16a′R,18a′R,E)-6-chloro-5-fluoro-11′,12′-dimethyl-10′,10′-dioxido-8′-oxo-3,4,8′,9′,12′,13′,16′,16a′,17′,18′,18a′,19′-dodecahydro-1′H,2H,3′H, 11′H-spiro[naphthalene-1,2′-[5,7]etheno[13,15]methanocyclobuta[i][1,4]oxazepino[3,4-f][1]thia[2,7]diazacyclohexadecin]-16′-yl)oxy)ethyl)-N-methylacetamide]
pIC50 (NCI-H929 cells; Homo sapiens, NCI-H929, 24 h): 7.21
pIC50 (OPM-2 cells; Homo sapiens, OPM-2, 24 h): 6.80
pIC50 [1]: 7.89

CO[C@@]1(CN(C)C(C)=O)C2=C[C@@H](C2)[C@H](C)[C@@H](C)S(=O)(=O)NC(=O)c2ccc3c(c2)N(C[C@@H]2CC[C@H]21)C[C@@]1(CCCc2c1ccc(Cl)c2F)CO3 [compound 53, N-(((1S,11′R,12′S,13′R,16′R,16a′R,18a′R,E)-6-chloro-5-fluoro-16′-methoxy-11′,12′-dimethyl-10′,10′-dioxido-8′-oxo-3,4,8′,9′,12′,13′,16′,16a′,17′,18′,18a′,19′-dodecahydro-1′H,2H,3′H,11′H-spiro[naphthalene-1,2′-[5,7]etheno[13,15]methanocyclobuta[i][1,4]oxazepino[3,4-f][1]thia[2,7]diazacyclohexadecin]-16′-yl)methyl)-N-methylacetamide]
pIC50 (NCI-H929 cells; Homo sapiens, NCI-H929, 24 h): 7.31
pIC50 (OPM-2 cells; Homo sapiens, OPM-2, 24 h): 7.24
pIC50 [1]: 8.24

C[C@@H]1[C@@H](C)S(=O)(=O)NC(=O)c2ccc3c(c2)N(C[C@@H]2CC[C@H]2[C@@H](OCC(=O)N2CCCCC2)C2=C[C@H]1C2)C[C@@]1(CCCc2c1ccc(Cl)c2F)CO3 [compound 69, (1S,11′R,12′S,13′R,16′R,16a′R,18a′R,E)-6-chloro-5-fluoro-11′,12′-dimethyl-16′-(2-oxo-2-(piperidin-1-yl)ethoxy)-3,4,12′,13′,16′,16a′,17′,18′,18a′,19′-decahydro-1′H,2H,3′H,11′H-spiro[naphthalene-1,2′-[5,7]etheno[13,15]methanocyclobuta[i][1,4]oxazepino[3,4-f][1]thia[2,7]diazacyclohexadecin]-8′(9′H)-one 10′,10′-dioxide]
pIC50 (NCI-H929 cells; Homo sapiens, NCI-H929, 24 h): 7.16
pIC50 (OPM-2 cells; Homo sapiens, OPM-2, 24 h): 7.40
pIC50 [1]: 7.85

CO[C@@]1(CN2CCN3CCOC[C@H]3C2)C2=C[C@@H](C2)[C@H](C)[C@@H](C)S(=O)(=O)NC(=O)c2ccc3c(c2)N(C[C@@H]2CC[C@H]21)C[C@@]1(CCCc2c1ccc(Cl)c2F)CO3 [compound 34, (1S,11′R,12′S,13′R,16′R,16a′R,18a′R,E)-6-chloro-5-fluoro-16′-(((R)-hexahydropyrazino[2,1-c][1,4]oxazin-8(1H)-yl)methyl)-16′-methoxy-11′,12′-dimethyl-3,4,12′,13′,16′,16a′,17′,18′,18a′,19′-decahydro-1′H,2H,3′H,11′H-spiro[naphthalene-1,2′-[5,7]etheno[13,15]methanocyclobuta[i][1,4]oxazepino[3,4-f][1]thia[2,7]diazacyclohexadecin]-8′(9′H)-one 10′,10′-dioxide]
pIC50 (NCI-H929 cells; Homo sapiens, NCI-H929, 24 h): 7.80
pIC50 (OPM-2 cells; Homo sapiens, OPM-2, 24 h): 7.46
pIC50 [1]: 8.01

CO[C@@H]1C2=CC(CCS(=O)(=O)NC(=O)c3ccc4c(c3)N(C[C@@H]3CC[C@H]31)C[C@@]1(CCCc3cc(Cl)ccc31)CO4)C2 (single isomer, unassigned) [Cpd. No. 4 (Isomer 2)]
pIC50 (NCI-H929 cells; 24 h): 5.80
pIC50 (OPM-2 cells; 24 h): 5.67
pIC50 [1]: 7.92

CO[C@@]1(CN2CCN3CCCC[C@H]3C2)C2=C[C@@H](C2)[C@H](C)[C@@H](C)S(=O)(=O)NC(=O)c2ccc3c(c2)N(C[C@@H]2CC[C@H]21)C[C@@]1(CCCc2c1ccc(Cl)c2F)CO3 [compound 32, (1S,11′R,12′S,13′R,16′R,16a′R,18a′R,E)-6-chloro-5-fluoro-16′-methoxy-11′,12′-dimethyl-16′-(((S)-octahydro-2H-pyrido[1,2-a]pyrazin-2-yl)methyl)-3,4,12′,13′,16′,16a′,17′,18′,18a′,19′-decahydro-1′H,2H,3′H,11′H-spiro[naphthalene-1,2′-[5,7]etheno[13,15]methanocyclobuta[i][1,4]oxazepino[3,4-f][1]thia[2,7]diazacyclohexadecin]-8′(9′H)-one 10′,10′-dioxide]
pIC50 (NCI-H929 cells; Homo sapiens, NCI-H929, 24 h): 8.00
pIC50 (OPM-2 cells; Homo sapiens, OPM-2, 24 h): 7.54
pIC50 [1]: 7.89

CO[C@H]1C2=C[C@@H](C2)[C@H](C)N(C[C@@H]2CCCO2)S(=O)(=O)NC(=O)c2ccc3c(c2)N(C[C@@H]2CC[C@H]21)C[C@@]1(CCCc2cc(Cl)ccc21)CO3 (single isomer, unassigned) [30 (isomer 3)]
pIC50 (NCI-H929 cells; Homo sapiens, NCI-H929, 24 h): 5.28
pIC50 (OPM-2 cells; Homo sapiens, OPM-2, 24 h): 5.21
pIC50 [1]: 7.85

CO[C@@]1(CN2C[C@@H](C)N[C@@H](C)C2)C2=C[C@@H](C2)[C@H](C)[C@@H](C)S(=O)(=O)NC(=O)c2ccc3c(c2)N(C[C@@H]2CC[C@H]21)C[C@@]1(CCCc2c1ccc(Cl)c2F)CO3 [compound 43, (1S,11′R,12′S,13′R,16′R,16a′R,18a′R,E)-6-chloro-16′-(((3S,5R)-3,5-dimethylpiperazin-1-yl)methyl)-5-fluoro-16′-methoxy-11′,12′-dimethyl-3,4,12′,13′,16′,16a′,17′,18′,18a′,19′-decahydro-1′H,2H,3′H,11′H-spiro[naphthalene-1,2′-[5,7]etheno[13,15]methanocyclobuta[i][1,4]oxazepino[3,4-f][1]thia[2,7]diazacyclohexadecin]-8′(9′H)-one 10′,10′-dioxide]
pIC50 (NCI-H929 cells; Homo sapiens, NCI-H929, 24 h): 7.46
pIC50 (OPM-2 cells; Homo sapiens, OPM-2, 24 h): 7.33
pIC50 [1]: 7.82

C[C@@H]1[C@@H](C)S(=O)(=O)NC(=O)c2ccc3c(c2)N(C[C@@H]2CC[C@H]2[C@@H](OCCN2CCC(F)(F)CC2)C2=C[C@H]1C2)C[C@@]1(CCCc2c1ccc(Cl)c2F)CO3 [compound 95]
pIC50 (NCI-H929 cells; Homo sapiens, NCI-H929, 24 h): 7.36
pIC50 (OPM-2 cells; Homo sapiens, OPM-2, 24 h): 7.38
pIC50 [1]: 7.64

CO[C@H]1C2=CC(C)(C2)[C@H](C)CS(=O)(=O)NC(=O)c2ccc3c(c2)N(C[C@@H]2CC[C@H]21)C[C@@]1(CCCc2cc(Cl)ccc21)CO3 (single isomer, unassigned) [Cpd. No. 18 (Isomer 2)]
pIC50 (NCI-H929 cells; 24 h): 6.36
pIC50 (OPM-2 cells; 24 h): 5.92
pIC50 [1]: 8.31

CO[C@@]1(CN2CCNCC2)C2=C[C@@H](C2)[C@H](C)[C@@H](C)S(=O)(=O)NC(=O)c2ccc3c(c2)N(C[C@@H]2CC[C@H]21)C[C@@]1(CCCc2c1ccc(Cl)c2F)CO3 [compound 41, (1S,11′R,12′S,13′R,16′R,16a′R,18a′R,E)-6-chloro-5-fluoro-16′-methoxy-11′,12′-dimethyl-16′-(piperazin-1-ylmethyl)-3,4,12′,13′,16′,16a′,17′,18′,18a′,19′-decahydro-1′H,2H,3′H, 11′H-spiro[naphthalene-1,2′-[5,7]etheno[13,15]methanocyclobuta[i][1,4]oxazepino[3,4-f][1]thia[2,7]diazacyclohexadecin]-8′(9′H)-one 10′,10′-dioxide]
pIC50 (NCI-H929 cells; Homo sapiens, NCI-H929, 24 h): 6.72
pIC50 (OPM-2 cells; Homo sapiens, OPM-2, 24 h): 6.81
pIC50 [1]: 7.59

CO[C@H]1C2CC(C2)[C@H](C)CS(=O)(=O)NC(=O)c2ccc3c(c2)N(C[C@@H]2CC[C@H]21)C[C@@]1(CCCc2cc(Cl)ccc21)CO3 [compound 3]
pIC50 (NCI-H929 cells; Homo sapiens, NCI-H929, 24 h): 5.52
pIC50 (OPM-2 cells; Homo sapiens, OPM-2, 24 h): 5.26
pIC50 [1]: 8.10

CO[C@H]1C2=CC(C2)[C@H](C)N(C)S(=O)(=O)NC(=O)c2ccc3c(c2)N(C[C@@H]2CC[C@H]21)C[C@@]1(CCCc2cc(Cl)ccc21)CO3 (single isomer, unassigned) [26 (isomer 1)]
pIC50 (NCI-H929 cells; 24 h): 6.80
pIC50 (OPM-2 cells; 24 h): 6.39
pIC50 [1]: 7.85
